Reference: US20050142230A1, “Pharmic activity and manufacturing method of the production produced by six kinds of plant compound” (priority 2003, published 2005)

System: male white mice
Assay: Hypnosis effect taking orally (lost righting reflex half minute)
Assay type: in vivo
Details: for The sleep animals: 30 mg/kg, n=25
Description: The male white mice (weighing 18-22 g) were divided into groups at random. Every group had twenty five. Experimental group douched the stomach with the compound by 0.08, 0.3, 0.4 ml/10 g, pentobabital sodium 30 mg/kg, the control group gave the same volumn saline. Then put them into the constant temperature infant cabinet at 37° C. We observed the mumber of the mice sleep. The standard was the half minute continous lost righting reflexs (table 3 was the result). […] The compound wares had hypnosis effect.

Question: What does the source list for `CCCC(C)C1(CC)C(=O)N=C([O-])NC1=O.[Na+]` (centres unmarked) [Pentobabital sodium]?
Answer: The sleep animals (5′): 20TT; The sleep animals (30′): 25TT; The sleep animals (60′): 21TT; The sleep animals (90′): 13; Hypnosis effect (in words) (30 ml/kg as printed in text, mice): let them all sleep
